Reference: patent US9340493B2, “Hydroxamic acid derivatives useful as antibacterial agents” (Pfizer Inc., priority 2008, dated 2016)
≈ marks a conversion by molar mass, not a printed value.

What was measured:
[1] = target: T1, Pseudomonas aeruginosa LpxC enzyme (Pseudomonas aeruginosa, UniProt P47205); test: IC50 assay, LpxC enzyme from P. aeruginosa; type: biochemical; conditions: 0.5 nM enzyme, 25° C., pH 8.0, 20 min; ** = average of 2-8 assays
T1 construct: made in house; host or cells: E. coli
T1 sequence (P47205 1-303): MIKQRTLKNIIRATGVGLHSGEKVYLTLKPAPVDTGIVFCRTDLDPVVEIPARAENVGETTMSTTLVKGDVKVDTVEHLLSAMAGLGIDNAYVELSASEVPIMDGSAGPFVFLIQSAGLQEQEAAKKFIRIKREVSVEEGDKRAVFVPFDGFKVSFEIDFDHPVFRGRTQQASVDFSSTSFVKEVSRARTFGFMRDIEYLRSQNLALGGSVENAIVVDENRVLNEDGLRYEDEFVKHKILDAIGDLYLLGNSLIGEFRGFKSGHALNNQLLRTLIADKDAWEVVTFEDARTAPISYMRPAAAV
Summary of the method: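 P. aeruginosa LpxC (0.5 nM, expressed in E. coli) reacted with 0.5 uM ³H-acetyl-labelled UDP-3-O-(R-3-hydroxydecanoyl)-GlcNAc in 50 mM sodium phosphate pH 8.0 with 1 mg/ml BSA at 25 °C for 20 min. Charcoal stopped the reaction, and filtrate radioactivity was counted by scintillation after no-enzyme background subtraction.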

P. aeruginosa PAO280 = test: MIC determination, P. aeruginosa PAO280; type: cell-based; conditions: Pseudomonas aeruginosa, PAO280, read-out: MIC (ug/mL) P. aeruginosa PAO280
Summary of the method: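 Broth dilution MIC per CLSI M7-A7/M100-S18 guidelines. Strain PAO280 lacks efflux pumps MexAB-oprM, MexXY and MexZ.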

P. aeruginosa UI-18 = test: MIC determination, P. aeruginosa UI-18; type: cell-based; conditions: Pseudomonas aeruginosa, UI18; wild-type; * = arithmetic mean of 2-6 MIC determinations; read-out: MIC (ug/mL) P. aeruginosa UI-18
Summary of the method: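 MIC by broth dilution following CLSI M7-A7 and M100-S18 guidelines, tested against wild-type P. aeruginosa UI-18.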

[2] = tested on: Acinetobacter baumanii/haemolyticus; test: MIC determination, A. baumanii/haemolyticus; type: cell-based; conditions: Acinetobacter baumannii; multidrug-resistant clinical isolate; * = arithmetic mean of 2-6 MIC determinations; read-out: MIC (ug/mL) A. baumanii/haemolyticus
Summary of the method: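 MICs were determined by CLSI broth dilution (M7-A7, M100-S18) against a multidrug-resistant clinical isolate of Acinetobacter baumanii/haemolyticus.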

Enterobacter aerogenes = test: MIC determination, E. aerogenes; type: cell-based; conditions: Klebsiella aerogenes; quinolone-resistant, ESBL-expressing clinical isolate; * = arithmetic mean of 2-6 MIC determinations; read-out: MIC (ug/mL) E. aerogenes
Summary of the method: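 Clinical E. aerogenes isolate, quinolone-resistant and ESBL-expressing. MIC measured in vitro by dilution testing according to CLSI guidelines (M7-A7, M100-S18).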

Escherichia coli EC-1 = test: MIC determination, E. coli EC-1; type: cell-based; conditions: EC1, EC-1: VOGEL, * = arithmetic mean of 2-6 MIC determinations, read-out: MIC (ug/mL) E. coli EC-1
Summary of the method: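 Minimum inhibitory concentration against Escherichia coli EC-1 was determined in vitro by dilution susceptibility testing under CLSI M7-A7 and M100-S18 guidelines.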

Klebsiella pneumoniae = test: MIC determination, K. pneumoniae; type: cell-based; conditions: ciprofloxacin-resistant, ESBL-expressing clinical isolate, * = arithmetic mean of 2-6 MIC determinations, read-out: MIC (ug/mL) K. pneumoniae
Summary of the method: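 MIC determined by broth dilution per CLSI M7-A7 and M100-S18 guidelines. Strain: ciprofloxacin-resistant, ESBL-expressing clinical isolate of K. pneumoniae.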

[3] = tested on: Staphylococcus aureus ATCC 29213; test: MIC determination, S. aureus ATCC 29213; type: cell-based; conditions: ATCC29213, CLSI quality control reference strain, * = arithmetic mean of 2-6 MIC determinations, read-out: MIC (ug/mL) S. aureus ATCC 29213
Summary of the method: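 MIC was measured by dilution susceptibility testing following CLSI guidelines (M7-A7; M100-S18). The test organism is the CLSI quality-control reference strain.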

Serratia marcescens = test: MIC determination, S. marcescens; type: cell-based; conditions: multidrug-resistant clinical isolate, * = arithmetic mean of 2-6 MIC determinations, read-out: MIC (ug/mL) S. marcescens
Protocol: MIC determinations: The in vitro antibacterial activity of compounds described in the Examples was evaluated by minimum inhibitory concentration (MIC) testing according to Clinical and Laboratory Standards Institute (CLSI, formerly NCCLS) guidelines. See: Clinical and Laboratory Standards Institute. Methods for Dilution Antimicrobial Susceptibility Tests for Bacteria that Grow Aerobically; Approved Standard-Seventh Edition. CLSI document M7-A7 [ISBN 1-56238-587-9]. Clinical and Laboratory Standards Institute, 940 West Valley Road, Suite 1400, Wayne, Pa. 19087-1898 USA, 2006; also Clinical and Laboratory Standards Institute. Performance Standards for Antimicrobial Susceptibility Testing; Eighteenth Informational Supplement. CLSI document M100-S18 [ISBN1-56238-653-0]. Clinical and Laboratory Standards Institute.
The following bacterial strains were used:
Serratia marcescens: Multidrug-resistant clinical isolate.

Compound	IC50 [1] [µM]	MIC (P. aeruginosa PAO280) [µg/mL]	MIC (P. aeruginosa UI-18) [µg/mL]	MIC [2] [µg/mL]	MIC (Enterobacter aerogenes) [µg/mL]	MIC (Escherichia coli EC-1) [µg/mL]	MIC (Klebsiella pneumoniae) [µg/mL]	MIC [3] [µg/mL]	MIC (Serratia marcescens) [µg/mL]	melting point [°C]
Cn1ccnc1[C@H](O)[C@](C)(OCc1ccc(-c2ccccc2)cc1)C(=O)NO [Example 10, (2S,3S)-2-(biphenyl-4-ylmethoxy)-N,3-dihydroxy-2-methyl-3-(1-methyl-1H-imidazol-2-yl)propanamide]	0.00246	0.19 (≈ 0.498 µM)	33 (≈ 86.5 µM)	64 (≈ 168 µM)	> 64	48 (≈ 126 µM)	48 (≈ 126 µM)	48 (≈ 126 µM)	64 (≈ 168 µM)	–
C[C@@](OCc1ccc(-c2ccccc2)cc1)(C(=O)NO)[C@@H](O)c1ccccc1 [Example 11, (2S,3S)-2-(biphenyl-4-ylmethoxy)-N,3-dihydroxy-2-methyl-3-phenylpropanamide]	0.00509	8 (≈ 21.2 µM)	> 64	> 64	> 64	> 64	> 64	32 (≈ 84.8 µM)	> 64	–
C[C@@](OCc1ccc(-c2ccccc2)cc1)(C(=O)NO)[C@@H](O)c1cccnc1 [Example 12, (2S,3S)-2-(biphenyl-4-ylmethoxy)-N,3-dihydroxy-2-methyl-3-pyridin-3-ylpropanamide]	0.00181	0.5 (≈ 1.32 µM)	32 (≈ 84.6 µM)	> 64	> 64	> 64	> 64	32 (≈ 84.6 µM)	> 64	–
O=C(NO)C(CO)(OCc1ccc(-c2ccccc2)cc1)C(F)(F)F (stereo not shown) [Example 50, 2-(biphenyl-4-ylmethoxy)-3,3,3-trifluoro-N-hydroxy-2-(hydroxymethyl)propanamide]	0.0147	1 (≈ 2.81 µM)	48 (≈ 135 µM)	> 64	> 64	> 64	> 64	> 64	> 64	–
CC(OCc1ccc(-c2ccccc2)cc1)C(=O)NO (stereo not shown) [Example 54, 2-(biphenyl-4-ylmethoxy)-N-hydroxypropanamide]	0.406	32 (≈ 118 µM)	> 64	> 64	> 64	> 64	> 64	> 64	> 64	120 to 123
COCC(CO)(OCc1ccc(-c2ccccc2)cc1)C(=O)NO (stereo not shown) [Example 56, 2-(biphenyl-4-ylmethoxy)-N,3-dihydroxy-2-(methoxymethyl)propanamide]	0.0222	4 (≈ 12.1 µM)	> 64	> 64	> 64	> 64	> 64	> 64	> 64	–
O=C(NO)C1(OCc2ccc(-c3ccccc3)cc2)CCOCC1 [Example 58, 4-(biphenyl-4-ylmethoxy)-N-hydroxytetrahydro-2H-pyran-4-carboxamide]	0.04	4 (≈ 12.2 µM)	> 64	> 64	> 64	> 64	> 64	> 64	> 64	–
O=C(NO)C(CO)(CO)OCc1ccc(-c2ccccc2)cc1 [Example 91, 2-(biphenyl-4-ylmethoxy)-N,3-dihydroxy-2-(hydroxymethyl)propanamide]	0.0108	1.25 (≈ 3.94 µM)	43 (≈ 136 µM)	> 64	> 64	> 64	> 64	> 64	> 64	–
O=C(NO)C(CO)(CCO)OCc1ccc(-c2ccccc2)cc1 (stereo not shown) [Example 92]	0.0134	2 (≈ 6.04 µM)	> 64	> 64	> 64	> 64	> 64	> 64	> 64	–
